From US20250230193A1, “CYCLIC COMPOUND HAVING SELECTIVE KRAS INHIBITORY EFFECT ON HRAS AND NRAS” (CHUGAI SEIYAKU KABUSHIKI KAISHA, priority 2022, published 2025)

Assays:
[1] = biological target: GDP-bound NRAS wild-type protein (Homo sapiens, UniProt P01111); experiment: Binding to NRAS by surface plasmon resonance (SPR), Single Cycle Kinetics; settings: SPR; KD ratio class
[2] = tested on: human lung cancer strain NCI-H441; experiment: cells; settings: NCI-H441, 96 h, read-out: NCI-H441 IC50 (nM)
[3] = biological target: GDP-bound HRAS wild-type protein (Homo sapiens, UniProt P01112); experiment: Binding to HRAS by surface plasmon resonance (SPR), Single Cycle Kinetics; settings: SPR; KD ratio class
GDP-bound HRAS wild-type protein, sequence (P01112 whole entry): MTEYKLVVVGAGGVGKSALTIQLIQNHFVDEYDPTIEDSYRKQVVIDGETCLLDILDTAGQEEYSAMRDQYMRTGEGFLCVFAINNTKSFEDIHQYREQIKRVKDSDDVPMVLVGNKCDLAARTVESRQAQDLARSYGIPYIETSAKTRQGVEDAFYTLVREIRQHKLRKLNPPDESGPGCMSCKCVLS

GDP-bound NRAS wild-type protein, sequence (P01111 whole entry): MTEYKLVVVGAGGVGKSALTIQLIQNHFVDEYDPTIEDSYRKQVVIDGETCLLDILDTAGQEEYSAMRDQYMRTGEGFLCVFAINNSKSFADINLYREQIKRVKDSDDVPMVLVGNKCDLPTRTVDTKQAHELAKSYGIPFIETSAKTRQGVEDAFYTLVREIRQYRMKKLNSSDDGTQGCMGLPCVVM

Compound | IC50 [2] | NRAS/KRAS (ratio of KD value for GDP-bound NRAS wild-type protein to KD value for KRAS) [1] | HRAS/KRAS (ratio of KD value for GDP-bound HRAS wild-type protein to KD value for KRAS) [3]
CCO[C@@H]1C[C@H]2C(=O)NC3(CCC3)C(=O)N(C)[C@@H](C(CC)CC)C(=O)N(C)[C@H](C(=O)N(C)C)CC(=O)N(C)[C@@H](CC3CCCC3)C(=O)N[C@@H]([C@@H](C)CC)C(=O)N(C)CC(=O)N(C)[C@H]3C/C=C\CCN(C3=O)[C@@H](Cc3ccc(F)cc3)C(=O)N(C)CC(=O)N[C@@H](CCc3cc(F)c(C(F)(F)F)c(F)c3)C(=O)N2C1 [PP1517] | 33.6 nM | A (a compound having 10 or more and less than 20 is denoted as A) | A (a compound having 10 or more and less than 20 is denoted as A)
CCO[C@@H]1C[C@H]2C(=O)NC3(CCC3)C(=O)N(C)[C@@H](C(CC)CC)C(=O)N(C)[C@H](C(=O)N(C)C)CC(=O)N(C)[C@@H](CC(C)C)C(=O)N[C@@H]([C@@H](C)CC)C(=O)N(C)CC(=O)N(C)[C@H]3C/C=C\CCN(C3=O)[C@@H](Cc3ccc(F)cc3C)C(=O)N(C)CC(=O)N[C@@H](CCc3cc(F)c(C(F)(F)F)c(F)c3)C(=O)N2C1 [PP1518] | 49.4 nM | A (a compound having 10 or more and less than 20 is denoted as A) | B (a compound having 3 or more and less than 10 is denoted as B)
CCO[C@@H]1C[C@H]2C(=O)NC3(CCC3)C(=O)N(C)[C@@H](C(CC)CC)C(=O)N(C)[C@H](C)CC(=O)N(C)[C@@H](CC3CC3)C(=O)N[C@@H]([C@@H](C)CC)C(=O)N(C)CC(=O)N(C)[C@H]3C/C=C\CCN(C3=O)[C@@H](Cc3ccc(F)cc3)C(=O)N(C)CC(=O)N[C@@H](CCc3cc(F)c(C(F)(F)F)c(F)c3)C(=O)N2C1 [PP1521] | 173 nM | A (a compound having 10 or more and less than 20 is denoted as A) | B (a compound having 3 or more and less than 10 is denoted as B)
CCO[C@@H]1C[C@H]2C(=O)NC3(CCC3)C(=O)N(C)[C@@H](C(CC)CC)C(=O)N(C)[C@H](C)CC(=O)N(C)[C@@H](CC(C)C)C(=O)N[C@@H]([C@@H](C)CC)C(=O)N(C)CC(=O)N(C)[C@H]3C/C=C\CCN(C3=O)[C@@H](Cc3ccc(F)cc3C)C(=O)N(C)CC(=O)N[C@@H](CCc3cc(F)c(C(F)(F)F)c(F)c3)C(=O)N2C1 [PP1524] | 439 nM | B (a compound having 3 or more and less than 10 is denoted as B) | B (a compound having 3 or more and less than 10 is denoted as B)
CCO[C@@H]1C[C@H]2C(=O)NC3(CCC3)C(=O)N(C)[C@@H](C(CC)CC)C(=O)N(C)[C@H](C)CC(=O)N(C)[C@@H](CC(C)C)C(=O)N[C@@H]([C@@H](C)CC)C(=O)N(C)CC(=O)N(C)[C@H]3C/C=C\CCN(C3=O)[C@@H](Cc3ccc(F)cc3)C(=O)N(C)CC(=O)N[C@@H](CCc3cc(F)c(C(F)(F)F)c(F)c3)C(=O)N2C1 [PP1525] | 132 nM | A (a compound having 10 or more and less than 20 is denoted as A) | A (a compound having 10 or more and less than 20 is denoted as A)
CCO[C@@H]1C[C@H]2C(=O)NC3(CCC3)C(=O)N(C)[C@@H](C3CCCC3)C(=O)N(C)[C@H](C(=O)N(C)C)CC(=O)N(C)[C@@H](CC3CC3)C(=O)N[C@@H]([C@@H](C)CC)C(=O)N(C)CC(=O)N(C)[C@H]3C/C=C\CCN(C3=O)[C@@H](Cc3ccc(F)cc3C)C(=O)N(C)CC(=O)N[C@@H](CCc3cc(F)c(C(F)(F)F)c(F)c3)C(=O)N2C1 [PP1528] | 45.6 nM | A (a compound having 10 or more and less than 20 is denoted as A) | B (a compound having 3 or more and less than 10 is denoted as B)
CCO[C@@H]1C[C@H]2C(=O)NC3(CCC3)C(=O)N(C)[C@@H](C3CCCC3)C(=O)N(C)[C@H](C(=O)N(C)C)CC(=O)N(C)[C@@H](CC(C)C)C(=O)N[C@@H]([C@@H](C)CC)C(=O)N(C)CC(=O)N(C)[C@H]3C/C=C\CCN(C3=O)[C@@H](Cc3ccc(F)cc3C)C(=O)N(C)CC(=O)N[C@@H](CCc3cc(F)c(C(F)(F)F)c(F)c3)C(=O)N2C1 [PP1532] | 13.4 nM | A (a compound having 10 or more and less than 20 is denoted as A) | B (a compound having 3 or more and less than 10 is denoted as B)
CCCC[C@H]1C(=O)N[C@@H]([C@@H](C)CC)C(=O)N(C)CC(=O)N(C)[C@H]2C/C=C\CCN(C2=O)[C@@H](Cc2ccc(C(F)(F)F)cc2)C(=O)N(C)CC(=O)N[C@@H](CCc2cc(F)c(C(F)(F)F)c(F)c2)C(=O)N2C[C@H](OCC)C[C@H]2C(=O)NC2(CCC2)C(=O)N(C)[C@@H](C2CCCC2)C(=O)N(C)[C@H](C(=O)N(C)CC)CC(=O)N1C [PP1558] | 3.4 nM | A (a compound having 10 or more and less than 20 is denoted as A) | B (a compound having 3 or more and less than 10 is denoted as B)
CCO[C@@H]1C[C@H]2C(=O)NC3(CC(C)(C)C3)C(=O)N(C)[C@@H](C3CCCC3)C(=O)N(C)[C@H](C(=O)N(C)C)CC(=O)N(C)[C@@H](CC)C(=O)N[C@@H]([C@@H](C)CC)C(=O)N(C)CC(=O)N(C)[C@H]3C/C=C\CCN(C3=O)[C@@H](Cc3ccc(C(F)(F)F)cc3)C(=O)N(C)CC(=O)N[C@@H](CCc3ccc(C(F)(F)F)c(OC)c3)C(=O)N2C1 [PP1559] | 1.8 nM | A (a compound having 10 or more and less than 20 is denoted as A) | A (a compound having 10 or more and less than 20 is denoted as A)

The next lines start with results.

IC50 [2] | Compound | NRAS/KRAS (ratio of KD value for GDP-bound NRAS wild-type protein to KD value for KRAS) [1] | HRAS/KRAS (ratio of KD value for GDP-bound HRAS wild-type protein to KD value for KRAS) [3]
78.2 nM | CCO[C@@H]1C[C@H]2C(=O)NC3(CCC3)C(=O)N(C)[C@@H](C(CC)CC)C(=O)N(C)[C@H](C(=O)N(C)C)CC(=O)N(C)[C@@H](CC(C)C)C(=O)N[C@@H]([C@@H](C)CC)C(=O)N(C)CC(=O)N(C)[C@H]3C/C=C\CCN(C3=O)[C@@H](Cc3ccc(F)cc3)C(=O)N(C)CC(=O)N[C@@H](CCc3cc(F)c(C(F)(F)F)c(F)c3)C(=O)N2C1 [PP1519] | A (a compound having 10 or more and less than 20 is denoted as A) | A (a compound having 10 or more and less than 20 is denoted as A)
575 nM | CCO[C@@H]1C[C@H]2C(=O)NC3(CCC3)C(=O)N(C)[C@@H](C(CC)CC)C(=O)N(C)[C@H](C)CC(=O)N(C)[C@@H](CC3CC3)C(=O)N[C@@H]([C@@H](C)CC)C(=O)N(C)CC(=O)N(C)[C@H]3C/C=C\CCN(C3=O)[C@@H](Cc3ccc(F)cc3C)C(=O)N(C)CC(=O)N[C@@H](CCc3cc(F)c(C(F)(F)F)c(F)c3)C(=O)N2C1 [PP1520] | A (a compound having 10 or more and less than 20 is denoted as A) | A (a compound having 10 or more and less than 20 is denoted as A)
567 nM | CCO[C@@H]1C[C@H]2C(=O)NC3(CCC3)C(=O)N(C)[C@@H](C(CC)CC)C(=O)N(C)[C@H](C)CC(=O)N(C)[C@@H](CC3CCCC3)C(=O)N[C@@H]([C@@H](C)CC)C(=O)N(C)CC(=O)N(C)[C@H]3C/C=C\CCN(C3=O)[C@@H](Cc3ccc(F)cc3C)C(=O)N(C)CC(=O)N[C@@H](CCc3cc(F)c(C(F)(F)F)c(F)c3)C(=O)N2C1 [PP1522] | A (a compound having 10 or more and less than 20 is denoted as A) | A (a compound having 10 or more and less than 20 is denoted as A)
118 nM | CCO[C@@H]1C[C@H]2C(=O)NC3(CCC3)C(=O)N(C)[C@@H](C(CC)CC)C(=O)N(C)[C@H](C(=O)N3CCOCC3)CC(=O)N(C)[C@@H](CC3CC3)C(=O)N[C@@H]([C@@H](C)CC)C(=O)N(C)CC(=O)N(C)[C@H]3C/C=C\CCN(C3=O)[C@@H](Cc3ccc(F)cc3C)C(=O)N(C)CC(=O)N[C@@H](CCc3cc(F)c(C(F)(F)F)c(F)c3)C(=O)N2C1 [PP1526] | A (a compound having 10 or more and less than 20 is denoted as A) | A (a compound having 10 or more and less than 20 is denoted as A)
143 nM | CCO[C@@H]1C[C@H]2C(=O)NC3(CCC3)C(=O)N(C)[C@@H](C(CC)CC)C(=O)N(C)[C@H](C(=O)N3CCOCC3)CC(=O)N(C)[C@@H](CC3CC3)C(=O)N[C@@H]([C@@H](C)CC)C(=O)N(C)CC(=O)N(C)[C@H]3C/C=C\CCN(C3=O)[C@@H](Cc3ccc(F)cc3)C(=O)N(C)CC(=O)N[C@@H](CCc3cc(F)c(C(F)(F)F)c(F)c3)C(=O)N2C1 [PP1527] | A (a compound having 10 or more and less than 20 is denoted as A) | A (a compound having 10 or more and less than 20 is denoted as A)
17.2 nM | CCO[C@@H]1C[C@H]2C(=O)NC3(CCC3)C(=O)N(C)[C@@H](C3CCCC3)C(=O)N(C)[C@H](C(=O)N(C)C)CC(=O)N(C)[C@@H](CC3CCCC3)C(=O)N[C@@H]([C@@H](C)CC)C(=O)N(C)CC(=O)N(C)[C@H]3C/C=C\CCN(C3=O)[C@@H](Cc3ccc(F)cc3C)C(=O)N(C)CC(=O)N[C@@H](CCc3cc(F)c(C(F)(F)F)c(F)c3)C(=O)N2C1 [PP1530] | A (a compound having 10 or more and less than 20 is denoted as A) | B (a compound having 3 or more and less than 10 is denoted as B)
